Data from US20050124032A1 (priority 2002, published 2005).

Tested on: X. dendrorhous Y-2476
Format: cell-based, Xanthophyllomyces dendrorhous

CC1=C(C)C(=O)C(C)=C(C)C1=O [duroquinone]
Reduction of growth: 15-25%
